# Reference: patent US9815835B2, “Substituted polycyclic carbamolypyridone derivative” (priority 2009, dated 2017)
# Tests used:
# influenza virus = assay: microbe, parasite or virus in culture; assay type: cell-based, influenza virus (MDBK or MDCK cells); settings: unidentified influenza virus, 72 h, read-out: CPE EC50, effective concentration to achieve 50% CPE inhibition, 3 days incubation, WST-8
# [1] = target: cap-dependent endonuclease (RNP fraction containing PB1•PB2•PA complex) (Influenza A virus, UniProt P15659); assay: biochemical; settings: RNP from A/WSN/33 virus, capped Cy3/BHQ2 30mer RNA substrate, 60 minutes at room temperature; read-out: CEN IC50
SMILES,EC50 (influenza virus) [nM],IC50 [1] [nM]
O=C(O)c1cn2c(c(O)c1=O)C(=O)N(CCOc1ccc(F)cc1)C[C@@H]2C(c1ccccc1)c1ccccc1 [Example 183],2370,74
O=C(O)c1cn2c(c(O)c1=O)C(=O)N(CC(F)(F)F)C[C@@H]2C(c1ccccc1)c1ccccc1 [Example 185],1920,132
O=C1c2c(O)c(=O)ccn2N(Cc2csc3ccc(Cl)cc23)CN1Cc1ccc(F)cc1 [Example 191],2820,238
CC(C)N1CN(Cc2cccc3ccsc23)n2ccc(=O)c(O)c2C1=O [Example 204],2360,299
O=C1c2c(O)c(=O)ccn2N(C(c2ccccc2)c2ccccc2)CN1C1CCOC1 (centres unmarked) [Example 224],119,276
CN1CCC(N2CN(C(c3ccccc3)c3ccccc3)n3ccc(=O)c(O)c3C2=O)CC1 [Example 225],663,283
CCC(COC)N1CN(C(c2ccccc2)c2ccccc2)n2ccc(=O)c(O)c2C1=O (centres unmarked) [Example 228],141,243
CCOC(=O)CC(C)N1CN(C(c2ccccc2)c2ccccc2)n2ccc(=O)c(O)c2C1=O (centres unmarked) [Example 230],525,282
CNC(=O)C(C)N1CN(C(c2ccccc2)c2ccccc2)n2ccc(=O)c(O)c2C1=O (centres unmarked) [Example 233],2240,228
CC(CC(=O)Nc1ccccc1)N1CN(C(c2ccccc2)c2ccccc2)n2ccc(=O)c(O)c2C1=O (centres unmarked) [Example 238],440,101
CC(C)N1CN(C(c2ccccc2Cl)c2ccccc2Cl)n2ccc(=O)c(O)c2C1=O [Example 240],48,37
CC(N1CN(C(c2ccccc2)c2cccc(Cl)c2)n2ccc(=O)c(O)c2C1=O)C(F)(F)F (centres unmarked) [Example 241],63,197
CC(C)N1CN(C(c2cccs2)c2cccs2)n2ccc(=O)c(O)c2C1=O [Example 244],108,249
CC(C)N1CN(C2c3ccc(Cl)cc3CCc3cc(Cl)ccc32)n2ccc(=O)c(O)c2C1=O [Example 246],26,82
CN1CC[C@H](N2CN(C3c4ccccc4CCc4ccccc43)n3ccc(=O)c(O)c3C2=O)C1 [Example 247],2260,282
CC(C)CN1CC(N2CN(C3c4ccccc4CCc4ccccc43)n3ccc(=O)c(O)c3C2=O)C1 [Example 248],489,103
CC(C)N1CC(N2CN(C3c4ccccc4CCc4ccccc43)n3ccc(=O)c(O)c3C2=O)C1 [Example 249],1890,151
CN1CC[C@@H](N2CN(C3c4ccccc4CCc4ccccc43)n3ccc(=O)c(O)c3C2=O)C1 [Example 250],476,113
CS(=O)(=O)N1CC[C@@H](N2CN(C3c4ccccc4CCc4ccccc43)n3ccc(=O)c(O)c3C2=O)C1 [Example 251],157,58
CC(C)N1CC[C@@H](N2CN(C3c4ccccc4CCc4ccccc43)n3ccc(=O)c(O)c3C2=O)C1 [Example 252],454,107
CN1CCC(N2CN(C3c4ccccc4CCc4ccccc43)n3ccc(=O)c(O)c3C2=O)CC1 [Example 253],280,235
O=C1c2c(O)c(=O)ccn2N(C2c3ccccc3CCc3ccccc32)CN1[C@@H]1CCN(CCO)C1 [Example 254],564,135
Cc1cc(CN2CN(C3c4ccccc4CCc4ccccc43)n3ccc(=O)c(O)c3C2=O)no1 [Example 255],319,52
O=C1c2c(O)c(=O)ccn2N(C2c3ccccc3CCc3ccccc32)CN1CCCF [Example 257],55,41
O=C1c2c(O)c(=O)ccn2N(C2c3ccccc3CCc3ccccc32)CN1CC(F)F [Example 259],26,66
CCC(COC)N1CN(C2c3ccccc3CCc3ccccc32)n2ccc(=O)c(O)c2C1=O (centres unmarked) [Example 260],65,91
O=C1c2c(O)c(=O)ccn2N(C2c3ccccc3CCc3ccccc32)CN1Cc1ccccn1 [Example 264],128,64
CCN1CN(C2c3ccccc3CCc3ccccc32)n2ccc(=O)c(O)c2C1=O [Example 266],85,43

SMILES,EC50 (influenza virus) [nM],IC50 [1] [nM]
CCOCCN1CN(C2c3ccccc3CCc3ccccc32)n2ccc(=O)c(O)c2C1=O [Example 268],74,18
O=C1c2c(O)c(=O)ccn2N(C2c3ccccc3CCc3ccccc32)CN1Cc1nccs1 [Example 271],102,73
CN1CN(C2c3ccccc3CCc3ccccc32)n2ccc(=O)c(O)c2C1=O [Example 273],84,16
O=C1c2c(O)c(=O)ccn2N(C2c3ccccc3CCc3ccccc32)CN1CCOC(F)(F)F [Example 277],71,39
COc1ccc2c(c1)CCc1ccccc1C2N1CN(C(C)C)C(=O)c2c(O)c(=O)ccn21 (centres unmarked) [Example 278],74,205
CC(C)N1CN(C2c3cc(Cl)ccc3CCc3ccc(Cl)cc32)n2ccc(=O)c(O)c2C1=O [Example 280],145,68
CC(C)N1CN(C2c3cccc(F)c3CCc3c(F)cccc32)n2ccc(=O)c(O)c2C1=O [Example 281],18,26
CC(C)N1CN(C2c3ccccc3CCc3cc(Cl)ccc32)n2ccc(=O)c(O)c2C1=O (centres unmarked) [Example 283],21,28
CC(C)N1CN(C2c3cc(F)ccc3SCc3c(Cl)cccc32)n2ccc(=O)c(O)c2C1=O (centres unmarked) [Example 285],17,44
O=C1c2c(O)c(=O)ccn2N(C2c3ccccc3CSc3ccccc32)CN1[C@@H]1CCN(CCOCc2ccccc2)C1 (some centres unmarked) [Example 286],121,161
CN1CC[C@@H](N2CN(C3c4ccccc4CSc4ccccc43)n3ccc(=O)c(O)c3C2=O)C1 (some centres unmarked) [Example 287],268,154
CN1CCC(N2CN(C3c4ccccc4CSc4ccccc43)n3ccc(=O)c(O)c3C2=O)CC1 (centres unmarked) [Example 288],85,299
O=C1c2c(O)c(=O)ccn2N(C2c3ccccc3CSc3ccccc32)CN1[C@@H]1CCN(CCO)C1 (some centres unmarked) [Example 290],492,67
CN1CCCC(N2CN(C3c4ccccc4CSc4ccccc43)n3ccc(=O)c(O)c3C2=O)C1 (centres unmarked) [Example 293],437,290
O=C1c2c(O)c(=O)ccn2N(C2c3ccccc3CSc3ccccc32)CN1CC(F)F (centres unmarked) [Example 294],18,35
Cc1nnc(CN2CN(C3c4ccccc4CSc4ccccc43)n3ccc(=O)c(O)c3C2=O)o1 (centres unmarked) [Example 295],334,52
COc1ccc(N2CN(C3c4ccccc4CSc4ccccc43)n3ccc(=O)c(O)c3C2=O)cc1 (centres unmarked) [Example 296],397,130
COCCN1CN(C2c3ccccc3CSc3ccccc32)n2ccc(=O)c(O)c2C1=O (centres unmarked) [Example 299],15,50
COCC(C)N1CN(C2c3ccccc3CSc3ccccc32)n2ccc(=O)c(O)c2C1=O (centres unmarked) [Example 300],21,58
O=C1c2c(O)c(=O)ccn2N(C2c3ccccc3CSc3ccccc32)CN1C1CC1 (centres unmarked) [Example 302],14,35
O=C1c2c(O)c(=O)ccn2N(C2c3ccccc3CSc3ccccc32)CN1CCF (centres unmarked) [Example 304],15,18
Cc1cc(CN2CN(C3c4ccccc4CSc4ccccc43)n3ccc(=O)c(O)c3C2=O)no1 (centres unmarked) [Example 305],103,59
O=C1c2c(O)c(=O)ccn2N(C2c3ccccc3CSc3ccccc32)CN1Cc1ccccn1 (centres unmarked) [Example 307],95,52
CC(C)(C)N1CN(C2c3ccccc3CSc3ccccc32)n2ccc(=O)c(O)c2C1=O (centres unmarked) [Example 308],19,72
CCN1CN(C2c3ccccc3CSc3ccccc32)n2ccc(=O)c(O)c2C1=O (centres unmarked) [Example 309],13,40
CS(=O)(=O)CCN1CN(C2c3ccccc3CSc3ccccc32)n2ccc(=O)c(O)c2C1=O (centres unmarked) [Example 310],522,108
COCCCN1CN(C2c3ccccc3CSc3ccccc32)n2ccc(=O)c(O)c2C1=O (centres unmarked) [Example 311],26,40
